# Test results as given in PubChem BioAssay (NCI).
#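 These data come from cells grown in 96-well plates and exposed to compound for 48 hours at five concentrations. GI50 is the concentration that inhibits growth by half. TGI denotes the concentration required for complete inhibition of growth.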
# Columns and labels:
# Test in all cases: DTP human tumour cell line panel, 48 h
# [1] = test system: IGROV1 ovarian
# [2] = test system: MDA-MB-435
# [3] = test system: NCI-H226 lung
# [4] = test system: SF-268 CNS
# [5] = test system: TK-10 renal
# [6] = test system: HS 578T breast
# [7] = test system: T-47D breast
# [8] = test system: MOLT-4 leukemia
# [9] = test system: ACHN renal
# [10] = test system: U251 CNS
# [11] = test system: COLO 205 colon
# [12] = test system: NCI-H460 lung
# [13] = test system: M14 melanoma
# [14] = test system: MALME-3M melanoma
# [15] = test system: RPMI-8226 leukemia
# [16] = test system: SK-MEL-28 melanoma
# [17] = test system: SF-539 CNS
# [18] = test system: SF-295 CNS
# [19] = test system: UACC-257 melanoma
# [20] = test system: SR leukemia
# [21] = test system: HOP-62 NSCLC
# [22] = test system: CCRF-CEM leukemia
# [23] = test system: SW-620 colon
# [24] = test system: CAKI-1 renal
# [25] = test system: OVCAR-8 ovarian
# [26] = test system: OVCAR-4 ovarian
# [27] = test system: UACC-62 melanoma
# [28] = test system: SN12C renal
# [29] = test system: BT-549 breast
# [30] = test system: EKVX NSCLC
# [31] = test system: SNB-19 CNS
# [32] = test system: KM12 colon
# [33] = test system: RXF 393 renal
# [34] = test system: NCI-H23 lung
# [35] = test system: HT29 colon
# [36] = test system: MDA-MB-231 breast
# [37] = test system: UO-31 renal
# [38] = test system: A549 NSCLC
# [39] = test system: HOP-92 NSCLC
# [40] = test system: MCF7 breast
# [41] = test system: NCI/ADR-RES ovarian
# [42] = test system: 786-0 renal
# [43] = test system: SK-MEL-2 melanoma
# [44] = test system: A498 renal
# [45] = test system: SK-OV-3 ovarian
# [46] = test system: HL-60(TB) leukemia
# [47] = test system: OVCAR-3 ovarian
# [48] = test system: OVCAR-5 ovarian
# [49] = test system: HCT-15 colon
# [50] = test system: SK-MEL-5 melanoma
# [51] = test system: PC-3 prostate
# [52] = test system: DU-145 prostate
# [53] = test system: SNB-75 CNS
# [54] = test system: NCI-H522 lung
# [55] = test system: K-562 leukemia
# [56] = test system: LOX IMVI melanoma
smiles,measurement,setting,value
S=C1NC2=C(CCOc3c2ccc2ccccc32)C(c2ccc(Cl)cc2)N1 (configuration not stated),GI50,[1],52.8 µM
same,TGI,[1],> 100 µM
same,GI50,[2],41.5 µM
same,TGI,[2],> 100 µM
same,GI50,[3],17 µM
same,TGI,[3],49.5 µM
same,GI50,[4],39.2 µM
same,TGI,[4],> 100 µM
same,GI50,[5],35.4 µM
same,TGI,[5],> 100 µM
same,GI50,[6],21.5 µM
same,TGI,[6],73.5 µM
same,GI50,[7],3.36 µM
same,TGI,[7],17.2 µM
same,GI50,[8],25.2 µM
same,TGI,[8],> 100 µM
same,GI50,[9],36.4 µM
same,TGI,[9],> 100 µM
same,GI50,[10],35.5 µM
same,TGI,[10],> 100 µM
same,GI50,[11],24.5 µM
same,TGI,[11],> 100 µM
same,GI50,[12],30.8 µM
same,TGI,[12],> 100 µM
same,GI50,[13],54.3 µM
same,TGI,[13],> 100 µM
same,GI50,[14],23.8 µM
same,TGI,[14],73.8 µM
same,GI50,[15],25 µM
same,TGI,[15],> 100 µM
same,GI50,[16],41.1 µM
same,TGI,[16],> 100 µM
same,GI50,[17],20.8 µM
same,TGI,[17],56.9 µM
same,GI50,[18],31.9 µM
same,TGI,[18],> 100 µM
same,GI50,[19],45.4 µM
same,TGI,[19],> 100 µM
same,GI50,[20],30.6 µM
same,TGI,[20],> 100 µM
same,GI50,[21],70.8 µM
same,TGI,[21],> 100 µM
same,GI50,[22],30.6 µM
same,TGI,[22],> 100 µM
same,GI50,[23],43.7 µM
same,TGI,[23],> 100 µM
same,GI50,[24],32.5 µM
same,TGI,[24],72.5 µM
same,GI50,[25],44.7 µM
same,TGI,[25],> 100 µM
same,GI50,[26],> 100 µM
same,TGI,[26],> 100 µM
same,GI50,[27],21.7 µM
same,TGI,[27],76.4 µM
same,GI50,[28],25.8 µM
same,TGI,[28],66 µM
same,GI50,[29],25.8 µM
same,TGI,[29],91.9 µM
same,GI50,[30],20.2 µM
same,TGI,[30],86 µM
same,GI50,[31],56.4 µM
same,TGI,[31],> 100 µM
same,GI50,[32],47.5 µM
same,TGI,[32],> 100 µM
same,GI50,[33],39 µM
same,TGI,[33],> 100 µM
same,GI50,[34],18.2 µM
same,TGI,[34],92 µM
same,GI50,[35],33.5 µM
same,TGI,[35],> 100 µM
same,GI50,[36],10.6 µM
same,TGI,[36],67.6 µM
same,GI50,[37],46.2 µM
same,TGI,[37],> 100 µM
same,GI50,[38],45.1 µM
same,TGI,[38],> 100 µM
same,GI50,[39],30.5 µM
same,TGI,[39],> 100 µM
same,GI50,[40],16.2 µM
same,TGI,[40],> 100 µM
same,GI50,[41],31.9 µM
same,TGI,[41],> 100 µM
same,GI50,[42],50.5 µM
same,TGI,[42],> 100 µM
same,GI50,[43],80.9 µM
same,TGI,[43],> 100 µM
same,GI50,[44],26.2 µM
same,TGI,[44],68 µM
same,GI50,[45],> 100 µM
same,TGI,[45],> 100 µM
same,GI50,[46],32.7 µM
same,TGI,[46],> 100 µM
same,GI50,[47],20.9 µM
same,TGI,[47],70.6 µM
same,GI50,[48],73.9 µM
same,TGI,[48],> 100 µM
same,GI50,[49],14.3 µM
same,TGI,[49],86 µM
same,GI50,[50],20 µM
same,TGI,[50],44.9 µM
same,GI50,[51],35.8 µM
same,TGI,[51],> 100 µM
same,GI50,[52],27.9 µM
same,TGI,[52],> 100 µM
same,GI50,[53],84 µM
same,TGI,[53],> 100 µM
same,GI50,[54],25.1 µM
same,TGI,[54],> 100 µM
same,GI50,[55],42.9 µM
same,TGI,[55],> 100 µM
same,GI50,[56],40.2 µM
same,TGI,[56],> 100 µM
